Laboratory results reported in patent US20220274967A1, “BCAT MODULATION” (Icagen, LLC, priority 2019, published 2022).
Read-outs that look alike come from different tables or passages of the source.

Columns and labels:
GM00371 cells = test: Viability assay (Cell titer glo) in the 3-HIB assay; assay type: cell-based, human; settings: read-out: 3HIB INHIBITION IC50 (μM) MEAN GM00371 cells Viablility Assay
Summary of the method: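 GM00371 cells (10,000/well, EMEM/15% FBS) were exposed for 24 h at 37 °C to compounds in 1:3 serial dilution from 30 μM top concentration in EMEM. Reference Compound B at 30 μM served as maximal-toxicity control. Viability read as CellTiter-Glo luminescence.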

BCAT2 = biological target: T1, BCAT2 (Homo sapiens, UniProt O15382); test: BCAT2 enzyme inhibition (human); assay type: biochemical
T1 sequence (O15382 28-392): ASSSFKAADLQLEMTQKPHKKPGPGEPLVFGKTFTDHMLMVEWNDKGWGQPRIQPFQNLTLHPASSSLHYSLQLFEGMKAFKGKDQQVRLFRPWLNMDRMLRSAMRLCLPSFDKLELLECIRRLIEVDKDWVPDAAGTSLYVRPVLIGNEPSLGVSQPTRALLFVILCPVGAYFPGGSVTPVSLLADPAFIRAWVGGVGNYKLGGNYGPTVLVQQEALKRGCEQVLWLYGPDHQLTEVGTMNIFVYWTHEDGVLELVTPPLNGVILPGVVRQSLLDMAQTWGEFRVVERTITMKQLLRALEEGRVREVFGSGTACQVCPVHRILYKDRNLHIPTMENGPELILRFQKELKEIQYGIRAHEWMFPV
Summary of the method: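 Cell-free coupled fluorescent assay: human BCATm converts branched-chain amino acids and α-ketoglutarate to L-glutamate, which L-glutamate oxidase and HRP link to resorufin formation from Amplex Red; activity taken as reduced glutamate signal.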

| IC50 (BCAT2) | Compound | IC50 (GM00371 cells; Homo sapiens, 24 h) | IC50 (GM00371 cells; 24 hours) |
| --- | --- | --- | --- |
| 100 to 500 nM | COC(=O)c1ccc2c(c1)nc(-c1ccccn1)n2[C@@H]1CCC[C@H](NC(=O)c2ccc(Br)s2)C1 [Compound 109] | 0.1 to 0.5 µM | – |
| 100 to 500 nM | CNC(=O)c1ccc2c(c1)nc(-c1ccccn1)n2[C@@H]1CCC[C@H](NC(=O)c2ccc(C#N)s2)C1 [Compound 112] | ≥ 1 µM | – |
| < 100 nM | CNC(=O)c1ccc2c(c1)nc(-c1ccccc1C)n2[C@H]1CCC[C@@H](NC(=O)c2ccc(C#N)s2)C1 [Compound 134] | ≥ 1 µM | – |
| < 100 nM | CNC(=O)c1ccc2c(c1)nc(-c1ccccc1C)n2[C@H]1CCC[C@@H](NC(=O)c2ccc(Br)s2)C1 [Compound 135] | 0.5 to 1 µM | – |
| < 100 nM | CNC(=O)c1ccc2c(c1)nc(-c1ccccc1C#N)n2[C@H]1CCC[C@@H](NC(=O)c2ccc(Br)s2)C1 [Compound 136] | < 0.1 µM | – |
| < 100 nM | CNC(=O)c1ccc2c(c1)nc(-c1ccccc1C#N)n2[C@H]1CCC[C@@H](NC(=O)c2ccc(Br)s2)C1 [Compound 137] | – | 0.1 to 0.5 µM |
| < 100 nM | CNC(=O)c1ccc2c(c1)nc(-c1ccccc1C#N)n2[C@H]1CCC[C@@H](NC(=O)c2ccc(C#N)s2)C1 [Compound 138] | ≥ 1 µM | – |
| < 100 nM | CNC(=O)c1ccc2c(c1)nc(-c1ccccc1C#N)n2[C@H]1CCC[C@@H](NC(=O)c2ccc(C#N)s2)C1 [Compound 139] | – | ≥ 1 µM |
| < 100 nM | CNC(=O)c1ccc2c(c1)nc(-c1ccccc1F)n2[C@H]1CCC[C@@H](NC(=O)c2ccc(Br)s2)C1 [Compound 145] | 0.1 to 0.5 µM | – |
| < 100 nM | C#Cc1ccccc1-c1nc2cc(C(=O)NC)ccc2n1[C@H]1CCC[C@@H](NC(=O)c2ccc(Br)s2)C1 [Compound 151] | 0.1 to 0.5 µM | – |
| < 100 nM | CNC(=O)c1ccc2c(c1)nc(-c1cccc(F)c1)n2[C@H]1CCC[C@@H](NC(=O)c2ccc(Br)s2)C1 [Compound 154] | 0.1 to 0.5 µM | – |
| < 100 nM | CNC(=O)c1cc2nc(-c3ccccn3)n([C@H]3CCC[C@@H](NC(=O)c4ccc(Br)s4)C3)c2cc1F [Compound 155] | 0.5 to 1 µM | – |
| < 100 nM | CNC(=O)c1cc2nc(-c3ccccc3C#N)n([C@H]3CCC[C@@H](NC(=O)c4ccc(Br)s4)C3)c2cc1F [Compound 157] | < 0.1 µM | – |
| < 100 nM | CNC(=O)c1ccc2c(c1)nc(-c1ccccc1C=O)n2[C@H]1CCC[C@@H](NC(=O)c2ccc(Br)s2)C1 [Compound 161] | 0.1 to 0.5 µM | – |
| < 100 nM | CNC(=O)c1ccc2c(c1)nc(-c1cccc(F)c1O)n2[C@H]1CCC[C@@H](NC(=O)c2ccc(Br)s2)C1 [Compound 163] | 0.1 to 0.5 µM | – |
| < 100 nM | CNC(=O)c1ccc2c(c1)nc(-c1c(O)cccc1F)n2[C@H]1CCC[C@@H](NC(=O)c2ccc(Br)s2)C1 [Compound 184] | 0.1 to 0.5 µM | – |
| < 100 nM | CNC(=O)c1cc2nc(-c3ccccc3F)n([C@H]3CCC[C@@H](NC(=O)c4ccc(Br)s4)C3)c2cc1F [Compound 207] | 0.1 to 0.5 µM | – |
| < 100 nM | CNC(=O)c1cc2nc(-c3ccccc3C)n([C@H]3CCC[C@@H](NC(=O)c4ccc(Br)s4)C3)c2cc1F [Compound 208] | 0.1 to 0.5 µM | – |
| < 100 nM | COC(=O)c1cc2nc(-c3ccccn3)n([C@@H]3CCC[C@H](NC(=O)c4ccc(Br)s4)C3)c2cn1 [Compound 291] | 0.1 to 0.5 µM | – |
| < 100 nM | CNC(=O)c1cc2nc(-c3ccccn3)n([C@H]3CCC[C@@H](NC(=O)c4ccc(Br)s4)C3)c2cn1 [Compound 292] | 0.1 to 0.5 µM | – |
